IC50 data for four compounds are collected here from BindingDB's records for doi:10.1016/s0960-894x(00)00462-5 (Smithkline Beecham Pharmaceuticals, 2001).

Broadly, the IC50 is the point on the concentration scale where inhibition reaches its midpoint.

Experiment [1] deals with Capsid scaffolding protein / assemblin protease (Human cytomegalovirus) (UniProt P16753). The experiment in a line: In vitro inhibitory activity against human cytomegalovirus (hCMV) protease in the absence of zinc.
Experiment [2] shares this target. The experiment in a line: In vitro inhibitory activity against human cytomegalovirus (hCMV) protease in the presence of zinc.
Experiment [3] has the same target. The experiment is described as above. This is another data set of the same source.

Chain of Capsid scaffolding protein / assemblin protease (Human cytomegalovirus) (P16753 whole entry, looked up): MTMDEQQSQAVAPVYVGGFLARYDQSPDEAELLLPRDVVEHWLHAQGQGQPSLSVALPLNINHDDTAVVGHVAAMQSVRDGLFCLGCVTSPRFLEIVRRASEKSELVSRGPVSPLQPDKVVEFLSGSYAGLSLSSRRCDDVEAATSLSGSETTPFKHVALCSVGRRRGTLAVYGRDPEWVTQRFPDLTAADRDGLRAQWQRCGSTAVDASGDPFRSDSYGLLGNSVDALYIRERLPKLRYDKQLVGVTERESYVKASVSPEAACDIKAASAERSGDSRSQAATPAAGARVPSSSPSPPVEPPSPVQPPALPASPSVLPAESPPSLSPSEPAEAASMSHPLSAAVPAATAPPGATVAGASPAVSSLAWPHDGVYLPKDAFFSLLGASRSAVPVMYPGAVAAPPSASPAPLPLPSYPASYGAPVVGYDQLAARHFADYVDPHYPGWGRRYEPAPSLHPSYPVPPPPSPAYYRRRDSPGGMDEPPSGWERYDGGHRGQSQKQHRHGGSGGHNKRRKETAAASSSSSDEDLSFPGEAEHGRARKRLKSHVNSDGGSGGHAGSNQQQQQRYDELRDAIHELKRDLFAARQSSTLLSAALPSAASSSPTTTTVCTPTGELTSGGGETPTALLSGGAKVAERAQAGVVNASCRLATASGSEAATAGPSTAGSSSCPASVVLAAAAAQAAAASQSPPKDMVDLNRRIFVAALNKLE

For `CCCCCCCCSc1ncc(Cc2cn(CC(=O)NC(Cc3ccccc3)C(=O)OCc3ccccc3)cn2)[nH]1` (stereo not drawn) [2-{2-[4-(2-Octylsulfanyl-1H-imidazol-4-ylmethyl)-imidazol-1-yl]-acetylamino}-3-phenyl-propionic acid benzyl ester], the IC50 in experiment [1] was found to be 125 µM; in experiment [2], 41 µM.

Take `CCCCCCCCSc1ncc(Cc2cn(CC(=O)NC(CC(=O)OCc3ccccc3)C(=O)OCc3ccccc3)cn2)[nH]1` (stereo not drawn) [2-{2-[4-(2-Octylsulfanyl-1H-imidazol-4-ylmethyl)-imidazol-1-yl]-acetylamino}-succinic acid dibenzyl ester]: the IC50 in experiment [1] is 15 µM; in experiment [3] it was 5 µM.

Take `CCCCCCCCSc1ncc(Cc2cn(Cc3ccc(C(=O)OC)cc3)cn2)[nH]1` [4-[4-(2-Octylsulfanyl-1H-imidazol-4-ylmethyl)-imidazol-1-ylmethyl]-benzoic acid methyl ester]: the figures for the IC50 in experiment [1] and in experiment [3] were above 150 µM and 7 µM, respectively.

On to `CCCCCCCCSc1ncc(Cc2cn(Cc3ccc(C(=O)NCC4CC4)cc3)cn2)[nH]1` [N-Cyclopropylmethyl-4-[4-(2-octylsulfanyl-1H-imidazol-4-ylmethyl)-imidazol-1-ylmethyl]-benzamide], for which the figures for the half-inhibitory concentration (IC50) in experiment [1] and in experiment [3] were above 150 µM and 15 µM, respectively.
